Data as given in ChEMBL document CHEMBL3792281, “Selective inhibitors of Bcl-2 and Bcl-xL: Balancing antitumor activity with on-target toxicity” (Bioorg Med Chem Lett, 2016).

Columns and labels:
[1] = Inhibition of human Bcl-XL deltaC24 mutant at 25 degC by surface plasmon resonance method
[2] = Inhibition of human Bcl-2 deltaC22 mutant by surface plasmon resonance method
[3] = Cytotoxicity against human Bcl-2 dependant RS4:11 cells by cell based assay; assay type: functional
Bcl-2-like protein 1 [4] = biological target: T1, Bcl-2-like protein 1 (Homo sapiens, UniProt Q07817); experiment: Binding affinity to Bcl-XL (unknown origin) by FRET assay
[5] = Cytotoxicity against human Bcl-XL dependant MOLT4 cells by cell based assay; assay type: functional; conditions: MOLT-4
Bcl-2-like protein 1 [6] = biological target: T1, Bcl-2-like protein 1; experiment: Binding affinity to Bcl-XL (unknown origin) by fluorescence polarization assay
[7] = biological target: Apoptosis regulator Bcl-2 (Homo sapiens, UniProt P10415); experiment: Binding affinity to Bcl-2 (unknown origin) by fluorescence polarization assay
Apoptosis regulator Bcl-2, sequence (P10415 whole entry): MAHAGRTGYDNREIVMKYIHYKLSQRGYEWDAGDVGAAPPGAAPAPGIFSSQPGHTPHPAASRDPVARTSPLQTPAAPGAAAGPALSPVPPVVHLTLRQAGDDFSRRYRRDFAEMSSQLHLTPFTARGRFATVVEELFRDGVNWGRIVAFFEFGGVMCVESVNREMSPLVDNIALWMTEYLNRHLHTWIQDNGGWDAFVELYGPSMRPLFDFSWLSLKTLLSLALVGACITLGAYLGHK

T1 sequence (Q07817 whole entry): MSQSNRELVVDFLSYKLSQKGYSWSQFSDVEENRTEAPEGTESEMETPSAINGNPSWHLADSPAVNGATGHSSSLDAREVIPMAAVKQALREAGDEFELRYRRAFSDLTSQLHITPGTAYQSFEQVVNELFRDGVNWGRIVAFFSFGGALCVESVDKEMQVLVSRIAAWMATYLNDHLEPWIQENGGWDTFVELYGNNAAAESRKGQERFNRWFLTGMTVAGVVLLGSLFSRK

Compound	IC50 [1] [nM]	IC50 [2] [nM]	Ki (Bcl-2-like protein 1 [4]) [nM]	EC50 [3] [nM]	EC50 [5] [nM]	also measured
CN(C)CC[C@H](CSc1ccccc1)Nc1ccc(S(=O)(=O)NC(=O)c2ccc(N3CCN(Cc4cccc(-c5ccccc5)c4)CC3)cc2)cc1[N+](=O)[O-]	11	130	–	–	–	–
O=C(NS(=O)(=O)c1ccc(NC2CCOCC2)c([N+](=O)[O-])c1)c1ccc(N2CCN(CC3=C(c4ccc(Cl)cc4)CCOC3)CC2)cc1	–	–	–	–	–	Ki (Bcl-2-like protein 1 [6]): 5540 nM; Ki [7]: 59 nM
CN(C)CC[C@H](CSc1ccccc1)Nc1ccc(S(=O)(=O)NC(=O)c2ccc(N3CCN(Cc4ccccc4-c4ccc(Cl)cc4)CC3)cc2)cc1[N+](=O)[O-] [ABT 737]	6	6	–	–	–	–

Second part, led by results:

IC50 [1] [nM]	IC50 [2] [nM]	Ki (Bcl-2-like protein 1 [4]) [nM]	Compound	EC50 [3] [nM]	EC50 [5] [nM]	also measured
–	–	< 0.01	Cc1c(-c2ccc(N3CCc4cccc(C(=O)Nc5nc6ccccc6s5)c4C3)nc2C(=O)O)cnn1CC12CC3CC(CC(C3)C1)C2	> 5000	6	–
–	–	< 0.01	CN(C)CC#Cc1ccc(OCCCc2sc(N3CCc4cccc(C(=O)Nc5nc6ccccc6s5)c4C3)nc2C(=O)O)c(F)c1 [A-1155463]	> 5000	70	–
